According to patent US5393777A, “Deferration using anguibactin siderophore” (State of Oregon Acting by and through the State Board of …, priority 1990, dated 1995):
“Also recorded” adds a separate entry of the source. Like-named read-outs stand apart in the source and are kept apart here.

Experiments:
[1] = as known in the art; cited from earlier work
[2] = ferric iron (Fe3+) binding / affinity / formation constant
Text: Each molecule of anguibactin chelates one ferric (Fe^3+ or Fe(III)) ion. Anguibactin also binds Ga(III).

calcium (Ca2+) affinity = format: binding; conditions: anguibactin
ferrous (Fe2+) affinity = format: binding
Ga(III) binding = conditions: anguibactin
Description: The structure of anguibactin was determined as outlined in Jalal et al., J. Am. Chem. Soc. 111:292 (1989), and shown schematically in FIG. 2. Anguibactin has a molecular weight of 348 g/mol, which is about half the molecular weight of deferoxamine (657 g/mol). Anguibactin can be regarded as a form of catechol rather than a monophenol. It has a unique structure which bears some resemblance to pyochelin. See Llinas et al., Biochemistry 12:3836 (1973). Anguibactin has been identified as ω-N-hydroxy-ω-[[2'-(2'',3''-dihydroxyphenyl)thiazolin-4'-yl]-carboxy]histamine by crystal X-ray diffraction studies of its anhydro derivative, proton and ^13 C nuclear magnetic resonance spectroscopy of its deferri and Ga(III) complex, fast-atom bombardment (FAB) mass spectrometry, and chemical degradation.

[3] = removal of ferric ion from ferric hydroxide; format: binding; conditions: aqueous, pH between 7 and 8
[4] = competitive binding assay, removal of Fe3+ from aerobactin; conditions: competitive binding assays
transferrin [5] = experiment: removal of Fe3+ from transferrin; conditions: anguibactin; competitive binding assays
[6] = tested on: iron-binding proteins in the fish host; experiment: removal of iron from iron-binding proteins in the fish host; conditions: in vivo
[7] = removal of ferric iron from aqueous solutions
[8] = tested on: human diploid fibroblast cells; experiment: inhibition of 59Fe uptake by normal human diploid fibroblast cells (FIG. 3); format: cell-based; conditions: 59Fe-containing cell-growth medium
Description: An experiment was conducted to characterize the chelation properties of anguibactin by examining its effect on iron uptake by mammalian cells in culture.
Normal human diploid fibroblast cells were mixed with ^59 Fe-containingcell-growth medium. Samples of the dosed cells were then incubated for increasing lengths of time. After each time period, the corresponding samples were rinsed to remove any free radioiron. The rinsed cells were treated with trypsin and the lysates precipitated with trichloroacetic acid. Radioactive counting of the precipitated lysates was performed using a Beckman counter. Addition of anguibactin and subsequent assay for radioiron in otherwise identical parallel samples yielded a measure of the capacity of the siderophore present in the cell-growth medium to interrupt the uptake of radioiron by the cultured cells.

rat heart cells = experiment: inhibition of iron uptake by rat heart cells; format: cell-based; conditions: non-immortalized cells, data not shown
[9] = toxicity on injection into fish; format: in vivo; conditions: injection of 400 μl anguibactin
Text: (§1) Preliminary studies indicate that anguibactin toxicity is very low.

[10] = toxicity on injection into rabbits; format: in vivo, rabbit; conditions: injection of 400 μl
Text: as §1

[11] = stability to acid hydrolysis; format: physicochemical
[12] = excretion of radioiron (59Fe) in urine and feces; format: in vivo, rats; conditions: about 10 mg incubated with 59FeCl3, subcutaneous, urine and feces over a week
Description: To determine the ability to excrete chelated iron, a procedure similar to that generally used to evaluate iron chelators is employed. Trace amounts of ^59 FeCl3 are incubated in vitro with about 10 mg anguibactin and subcutaneously injected into normal subjects such as rats. Cumulative excretion of radioiron is measured during the subsequent week in urine and feces. Weak iron chelators are not able enhance ^59 Fe excretion relative to a control injected with ^59 FeCl3 only. […] Evaluation of the distribution of radioiron in urine and stool provides an indication of whether the siderophore-bound iron is removed from plasma by kidneys (urine) or by the liver followed by excretion to the bile (stool).

Vibrio anguillarum = experiment: experimental infection of salmonid fishes, iron supply by siderophore for growth of avirulent strain; format: in vivo; conditions: fish infected with wild-type V. anguillarum
Text: A mutant strain of Vibrio anguillarum termed 775:Tn1-5 was produced which contained the pJM1-derivative plasmid pJHC-91 in which a transposon element Tn1 was inserted into genetic unit I. This mutant strain can grow in vitro in iron-limited media only if the supernatant from strains containing the wild-type pJM1 plasmid, and thus plenty of anguibactin, is supplied. Therefore, strains harboring the pJHC-91 plasmid must be able to transport and incorporate iron from anguibactin but are not able to produce this anguibactin itself. Strains containing the pJHC-91 plasmid are able to synthesize the pOM2 outer membrane protein.

toxicity, general = conditions: preliminary studies
[13] = theoretical; cited from earlier work
transferrin [14] = conditions: deferoxamine; cited from earlier work
ferritin = conditions: cited from earlier work
hemosiderin = conditions: cited from earlier work
cytochromes = conditions: cited from earlier work
hemoglobin = conditions: cited from earlier work
[15] = cited from earlier work
[16] = cited from earlier work; remark: listed apart in the source
[17] = deferoxamine; cited from earlier work
[18] = in vivo; cited from earlier work
[19] = human, in vivo; cited from earlier work
Yersinia enterocolitica = conditions: in some cases; cited from earlier work
[20] = deferoxamine; cited from earlier work; remark: listed apart in the source

SMILES: O=C(O)CN(CCN(CC(=O)O)CC(=O)O)CC(=O)O [EDTA]
- toxicity of calcium chelators [1]: relatively toxic

SMILES: O=C(C1CSC(c2cccc(O)c2O)=N1)N(O)CCc1c[nH]cn1 (centres unmarked) [anguibactin, ω-N-hydroxy-ω-[[2'-(2'',3''-dihydroxyphenyl)thiazolin-4'-yl]-carboxy]histamine]
- affinity for ferric ions [2]: extremely high
- dependence of Fe3+ binding on pH [2]: dependent on pH
- ferric (Fe3+) ions chelated per molecule [2]: one
- iron chelating power compared with deferoxamine ([2]; from competitive binding data): more powerful iron chelator than the widely used deferoxamine
- Fe3+ binding in mildly alkaline conditions ([2]; mildly alkaline conditions): excellent binding can be achieved
- affinity for Ca2+ ions (calcium (Ca2+) affinity): only a very weak affinity
- affinity for ferrous (Fe2+) ions (ferrous (Fe2+) affinity): only a very weak affinity; also recorded: little affinity
- binding of Ga(III) (Ga(III) binding): binds Ga(III)
- binding of metals other than iron known to be essential for bacterial metabolism (binding of other metals): does not bind any metal other than iron known to be essential for bacterial metabolism
- removal of ferric ion from ferric hydroxide [3]: remove ferric ion from ferric hydroxide
- removal of Fe3+ from other siderophores such as aerobactin [4]: able to remove Fe^3+ from other siderophores such as aerobactin
- removal of Fe3+ from transferrin (transferrin [5]): able to remove Fe^3+
- removal of iron from transferrin and other iron-binding proteins in the fish host [6]: very efficient in removing iron from aqueous solution as well as from transferrin and from other iron-binding proteins in the fish host
- removal of iron from aqueous solution [7]: capable of removing ferric iron from aqueous solutions, including cell-culture medium; also recorded: very efficient in removing iron from aqueous solution
- inhibition of iron uptake by human fibroblast cells [8]: inhibits uptake, from a liquid medium, of iron by cultured human diploid fibroblast cells; also recorded: interrupts the flow of iron into human cells
- inhibition of iron uptake by human fibroblast cells ([8]; listed as Anguibactin): inhibits iron uptake by living cells
- inhibition of iron uptake by rat heart cells (rat heart cells): substantially the same results
- inhibition of iron uptake by rat heart cells (rat heart cells; listed as Anguibactin): inhibits iron uptake by living cells
- adverse effect, fish [9]: no discernable adverse effect
- adverse effect, rabbits [10]: no discernable adverse effect
- cleavage by hydrochloric acid ([11]; 6N hydrochloric acid): cleave anguibactin to 2,3-dihydroxybenzoic acid, dehydrocystine, and histamine
- acid hydrolysis below pH 3 ([11]; environment more acidic than pH 3): undergoes acid hydrolysis to at least a partial degree
- pH down to which the molecule remains intact ([11]; pH): ≥ 3
- excretion of radioiron [12]: enhance excretion of radioiron
- level of siderophore in blood and kidneys of infected fish (Vibrio anguillarum): sufficient to provide iron for considerable growth of the avirulent strain
- solubility in methanol (solubility; methanol): freely soluble in water and methanol
- solubility in water (solubility): highly soluble in water
- solubility in water (solubility; listed as Anguibactin): freely soluble in water
- toxicity (toxicity, general): very low
- toxicity (toxicity, general; listed as Anguibactin): very low toxicity

SMILES: CC(=O)N(O)CCCCCNC(=O)CCC(=O)N(O)CCCCCNC(=O)CCC(=O)N(O)CCCCCN [deferoxamine]
- capacity of binding ferric iron [13]: about 8.5 parts by weight
- removal of iron from transferrin (transferrin [14]): not readily from transferrin
- removal of iron from ferritin (ferritin): wrests iron from ferritin
- removal of iron from hemosiderin (hemosiderin): wrests iron from ferritin and hemosiderin
- removal of iron from cytochromes (cytochromes): substantially not at all from cytochromes
- removal of iron from hemoglobin (hemoglobin): substantially not at all from cytochromes and hemoglobin
- Intravenous LD50, mice [15]: 287 mg/kg
- Intravenous LD50, rats [16]: 329 mg/kg
- acid hydrolysis [17]: prone to acid hydrolysis
- absorption after oral administration [18]: poorly absorbed after oral administration
- toxic reactions [19]: toxic and can cause a number of reactions, including allergic reactions: pruritis, wheals, rash, and anaphylaxis; and dysuria, gastrointestinal symptoms, diarrhea, fever, leg cramps, hypotension, and tachycardia
- effect on susceptibility of iron-overload patients to Yersinia enterocolitica infections (Yersinia enterocolitica): enhanced this susceptibility, resulting in generalized infections
- excretion of radioiron [20]: enhance excretion of radioiron
